What was measured:
[1] = Stability of Creatine amides in human blood plasma (RP-HPLC peak areas, 37° C.)
Description: The detection was carried out on the wave length 220 nm. The samples dosing on the column was carried out by the loop 20 μl.
(§1) For the study of Creatine amides stability, 1 ml of water or blood plasma was added to 200 μl of aqueous solution of starting amide with a concentration of 2÷3 mg/ml then shaken; a probe volume of 200 μl was taken up immediately and analysis of an initial concentration of the Creatine amide was carried out. Further, the solution was placed into a vibro-thermostat at a temperature of 37° C., then aliquote 200 μl was taken up in 0.5, 1, and 3 hours of thermostatics. 20 μl 10% solution of trichloroacetic acid was added to the taken probe, and kept for 15 min at temperature (−)24° C., then centrifuged at 6000×g for 5 minutes for sedimentation of plasma proteins, supernatant was taken up and its analysis was carried out.
(§2) For evaluation of samples' stability, peak areas of a corresponding compound at the beginning of experiment and at selected time intervals were compared (Tables 1, 2).

[2] = Stability of Creatine amides in rat blood plasma (RP-HPLC peak areas, 37° C.)
Description: Study of the Creatine derivatives stability in aqueous solution, as well as in human and rat blood plasma was carried out by the method of Reversed Phase HPLC using a chromatography system, known as Beckman System Gold™ (USA) in the following configuration: Programmable Solvent Module 126, Manual Injector Rheodyne 7725i, Programmable Detector Module 166, featured with the Beckman System Gold Chromatography Software™. The analysis was carried out on the column Luna 5μ C18(2) 100 Å 150×4.6 mm (Phenomenex, USA) with the precolumn Guard Cartridge C18 at the flow rate 1 ml/min in the linear gradient of acetonitrile: for analogue from the Example 1 from 5 to 25% of acetonitrile in 20 min (A: 0.1% of […]—H2O, B: 0.1% of H3PO4-acetonitrile), in case of substance from the Examples 2÷8: from 3 to 23% of acetonitrile in 20 minutes. The detection was carried out on the wave length 220 nm. The samples dosing on the column was carried out by the loop 20 μl.
as §1, §2

[3] = dosages up to 30 g for a few days, per os; cited from earlier work
[4] = peak area relative to start, 37° C.

SMILES	Stability in human blood plasma, 0 h ([1]; human, plasma) [%]	Stability in human blood plasma, 0.5 h ([1]; human, plasma) [%]	Stability in human blood plasma, 1 h ([1]; human, plasma) [%]	Stability in human blood plasma, 3 h ([1]; human, plasma) [%]	Stability in a rat blood plasma, 0 h ([2]; rat, plasma) [%]	Stability in a rat blood plasma, 0.5 h ([2]; rat, plasma) [%]	Stability in a rat blood plasma, 1 h ([2]; rat, plasma) [%]	Stability in a rat blood plasma, 3 h ([2]; rat, plasma) [%]	Stability in human blood plasma, 0 h [1, 4] [%]	other results
CN(CC(=O)OCc1ccccc1)C(=N)N [Creatine benzyl ester, reference compound]	–	–	–	–	–	–	–	–	100	Decrease of concentration in human blood plasma ([1]; during 0.75 hours): 53%; remaining at 0.75 h ([1]; human, blood plasma): 53%; remaining at 3 h ([1]; human, blood plasma): 46%
CN(CC(=O)N[C@@H](Cc1ccccc1)C(=O)O)C(=N)N.Cl [Example 8, Creatinyl-Phenylalanine hydrochloride]	–	–	–	–	–	–	–	–	100	Stability in human blood plasma, 0.5 h [1, 4]: 99%; Stability in human blood plasma, 1 h [1, 4]: 98%; Stability in human blood plasma, 3 h [1, 4]: 97%; Stability in a rat blood plasma, 0 h [2, 4]: 100%; Stability in a rat blood plasma, 0.5 h [2, 4]: 98%; Stability in a rat blood plasma, 1 h [2, 4]: 98%; Stability in a rat blood plasma, 3 h [2, 4]: 95%
CC(=O)O.CN(CC(=O)N[C@@H](Cc1ccccc1)C(N)=O)C(=N)N [Example 3, Creatinyl-L-Phenylalanine Amide Acetate]	100	100	100	100	100	96	98	99	–	–
CN(CC(=O)O)C(=N)N.O [Creatine monohydrate]	–	–	–	–	–	–	–	–	–	Increase of the total Creatine content in a human's skeleton muscles [3]: more than 20%
CC(=O)O.CCOC(=O)CCCNC(=O)CN(C)C(=N)N [Example 1, Creatinyl-γ-Aminobutyric Acid Ethyl Ester Acetate]	–	–	–	–	–	–	–	–	100	Stability in human blood plasma, 0.5 h [1, 4]: 99%; Stability in human blood plasma, 1 h [1, 4]: 103%; Stability in human blood plasma, 3 h [1, 4]: 104%; Stability in a rat blood plasma, 0 h [2, 4]: 100%; Stability in a rat blood plasma, 0.5 h [2, 4]: 96%; Stability in a rat blood plasma, 1 h [2, 4]: 98%; Stability in a rat blood plasma, 3 h [2, 4]: 99%

Second part, led by results:

Stability in human blood plasma, 0 h ([1]; human, plasma) [%]	Stability in human blood plasma, 0.5 h ([1]; human, plasma) [%]	Stability in human blood plasma, 1 h ([1]; human, plasma) [%]	Stability in human blood plasma, 3 h ([1]; human, plasma) [%]	Stability in a rat blood plasma, 0 h ([2]; rat, plasma) [%]	Stability in a rat blood plasma, 0.5 h ([2]; rat, plasma) [%]	Stability in a rat blood plasma, 1 h ([2]; rat, plasma) [%]	Stability in a rat blood plasma, 3 h ([2]; rat, plasma) [%]	SMILES	Stability in human blood plasma, 0 h [1, 4] [%]	other results
100	99	99	100	100	100	97	98	CN(CC(=O)N[C@@H](Cc1ccccc1)C(N)=O)C(=N)N.O [Example 2, Creatinyl-L-Phenylalanine Amide Hydrate]	–	–
100	98	100	99	100	99	99	96	CN(CC(=O)NCC(=O)OCc1ccccc1)C(=N)N.Cl [Example 4, Creatinyl-Glycine Benzyl Ester Hydrochloride]	–	–
100	–	–	–	100	–	–	–	CCOC(=O)CNC(=O)[C@H](CCCNC(=N)N)NC(=O)[C@H](Cc1ccccc1)NC(=O)CN(C)C(=N)N [Example 7, Creatinyl-Phenylalanyl-Arginyl-Glycine Ethyl Ester Acetate]	–	remaining at 0.5 h ([1]; human, plasma): 94%; remaining at 1 h ([1]; human, plasma): 90%; remaining at 3 h ([1]; human, plasma): 85%; remaining at 0.5 h ([2]; rat, plasma): 93%; remaining at 1 h ([2]; rat, plasma): 92%; remaining at 3 h ([2]; rat, plasma): 85%
